Results: patent US20050153315A1, “Dimethylarginine dimethylaminohydrolases” (UNIVERSITY COLLEGE LONDON, priority 1999, published 2005)

Key:
Type in all cases: biochemical
recombinant human DDAHII = target: T1, recombinant human DDAHII (Homo sapiens, UniProt O95865); assay: DDAH assay, [14C]L-NMMA to [14C]citrulline, lysates of E. coli expressing recombinant human DDAHII; details: E. coli lysate, 37° C., 60 min, pH 6.5; for effect of competition on metabolism of [14C] L-NMMA by recombinant DDAHII: molar excess of cold competitor
T1 construct: The entire human DDAHII open reading frame was PCR amplified from oligo dT primed human kidney cDNA; made in house; host or cells: E. coli DH5α, soluble fraction of the lysate, not purified
T1 sequence (O95865 1-285): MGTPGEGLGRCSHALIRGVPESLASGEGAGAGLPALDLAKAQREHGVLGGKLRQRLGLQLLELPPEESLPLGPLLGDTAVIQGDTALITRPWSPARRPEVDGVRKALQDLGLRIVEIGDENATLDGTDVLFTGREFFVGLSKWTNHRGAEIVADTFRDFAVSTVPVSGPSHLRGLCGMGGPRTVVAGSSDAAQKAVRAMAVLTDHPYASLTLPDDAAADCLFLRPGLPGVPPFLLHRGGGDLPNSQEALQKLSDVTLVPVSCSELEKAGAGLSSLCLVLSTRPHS
Source text: The entire human DDAHII open reading frame was PCR amplified from oligo dT primed human kidney cDNA using oligos HDDAHII.1 and HDDAHII.2. Oligo HDDAH II.1 is complementary to base pairs 2-15 of the human DDAHII cDNA and contains an EcoRI site in frame with the EcoTI site of pPROX.HTa (Life Technologies). HDDAHI.2 is complementary to base pairs 858-840 of the human DDAHII cDNA and contains an artificial XbaI site. PCR produced a single product of ˜850 bp which was digested with EcoRI and Xbai, ligated into EcoRI and XbaI digested pRPROX.HTa and transformed into compotent E.coli DH5α. A positive clone (pPDDAHII) containing an insert of 858 bp was identified and the insert sequenced on both stands. For expression of recombinant human DDAHII, E.coli were grown in liquid culture at 25 ° C. to an OD600 of 0.5-0.6. Expression was then induced by the addition of IPTG to a final concentration of 1 mM and incubation continued for a further two hours. Following induction, cells were collected by centrifugation, weighed and resuspended in ice cold assay buffer (100 mM Na2HPO4 pH 6.5) at 1 g cells/ml. Cells were disrupted by sonication (6×10 secs, with 10 sec. intervals) and centriguged at 50,000 g to separate soluble material from insoluble cell debris.
Aliquots of E.coli lysates were incubated at 37° C. for 60 min. with […] of 100 mM Na2HPO4 pH 6.5 containing 0.02 μCi [^14C]L-NMMA as described previously (MacAllister et al., 1996, Br. J. Pharmacol. 115, 1001-1004). Following incubation samples were prepared for determination of [^14C] citrulline production by scintillation counting. Reactions were vortexed with 1 ml of 50% (w/v) dowex 50X8-400, centrifuged at 10,000 g for 5 min and then 500 μl of the supernatant was mixed with 5 ml of liquid scintillation fluid and the [^14C] content determined.

[1] = target: T2, P. aeruginosa DDAH (PaDDAH) (Pseudomonas aeruginosa, UniProt Q9I4E3); assay: DDAH assay, cell lysates containing recombinant P. aeruginosa DDAH; details: 10 mM
T2 construct: The inserts containing the open reading frames of the bacterial DDAHs were excised from the vector; made in house; host or cells: E. coli DH5α, cell lysate
T2 sequence (Q9I4E3 whole entry): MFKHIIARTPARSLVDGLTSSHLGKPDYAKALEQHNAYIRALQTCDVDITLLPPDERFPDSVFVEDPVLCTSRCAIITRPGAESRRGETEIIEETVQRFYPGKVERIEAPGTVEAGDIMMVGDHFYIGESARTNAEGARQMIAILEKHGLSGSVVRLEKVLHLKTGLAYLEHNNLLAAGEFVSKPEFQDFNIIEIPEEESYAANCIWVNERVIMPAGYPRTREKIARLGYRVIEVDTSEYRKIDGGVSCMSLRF
Experimental: (§1) The effect of 10 mM ADMA and SDMA on recombinant ScDDAH and paDDAH was studied using the assay conditions described in the material and methods section below. Assays were carried out in triplicate on aliquots of cell lysates containing empty vector, scDDAH cDNA or paDDAH cDNA and data was expressed as a mean of the total number of replicates after subtraction of background. The results shown are the mean of three independent experiments.
(§2) Samples were assayed by incubating 100 μl of cells lysates with an equal volume of assay mix (100 mM Na2HPO4 pH 6.5, containing 0.02 μCi [^14C] L-NMMA and 100 μM cold L-NMMA) at 37° C. for 60 min, as previously reported. The samples were then prepared for scintillation counting to measure the production of [^14C] citrulline by adding 400 μl of 50% (w/v) Dowex 50X-400 to the reactions, vortexing and centrifugation at 13000 g for 2 min. The [^14C] content of 100 μl of supernatant in 1 ml scintillation fluid was then determined.
(§3) For expression of the recombinant proteins, a positive clone was picked and grown in liquid media supplemented with 100 μg/ml ampicillin. […]

[2] = tested on: S. coelicolor DDAH (ScDDAH); assay: DDAH assay, cell lysates containing recombinant S. coelicolor DDAH; details: 10 mM
Experimental: as §1, §2, §3

CNC(=N)NCC[C@H](N)C(=O)O [4124W, S-2-amino-4(3-methylguanidino)butanoic acid]
effect of DDAH inhibitor on metabolism of [14C] L-NMMA by recombinant DDAHII (recombinant human DDAHII): inhibited

CN(C)C(N)=NCCC[C@H](N)C(=O)O [ADMA, N^GN′^G dimethyl-L-arginine]
relative effect on the metabolism of L-NMMA ([1]; ADMA compared with SDMA, PaDDAH): greater effect than SDMA | competition with L-NMMA as substrate (metabolism of [14C] L-NMMA) ([1]; PaDDAH cell lysate, FIG. 7): compete with L-NMMA as substrates | relative effect on the metabolism of L-NMMA ([2]; ADMA compared with SDMA, ScDDAH): greater effect than SDMA | competition with L-NMMA as substrate (metabolism of [14C] L-NMMA) ([2]; ScDDAH cell lysate, FIG. 7): compete with L-NMMA as substrates | effect of competition on metabolism of [14C] L-NMMA by recombinant DDAHII (recombinant human DDAHII): inhibited

CNC(=N)NCCC[C@H](N)C(=O)O [L-NMMA, N^G monomethyl-L-arginine]
effect of competition on metabolism of [14C] L-NMMA by recombinant DDAHII (recombinant human DDAHII): inhibited

NC(=O)NCCC[C@H](N)C(=O)O [citrulline]
effect of competition on metabolism of [14C] L-NMMA by recombinant DDAHII (recombinant human DDAHII): inhibited
